# Experimental data: patent US20150093333A1, “COMPOSITIONS, METHODS AND USES FOR PEPTIDES IN DIAGNOSIS, PROGRESSION AND TREATMENT OF CANCERS” (THE REGENTS OF THE UNIVERSITY OF COLORADO, body corporate, priority 2003, published 2015)
# Like-named read-outs stand apart in the source and are kept apart here.
# What was measured:
# lipid vesicles = experiment: Fluorescence anisotropy titration of BK derived peptides with lipid vesicles; assay type: binding; details: read-out: Dissociation constant (Kd)
# Experimental: In another method, synthetic lipid vesicles of various sizes were prepared to model different membrane curvatures for testing interactions. Three compositions of vesicles were designed to closely resemble natural biological membranes named lipid model (LM) 1, 2, and 3. These vesicles were prepared by extrusion under inert, pressure-controlled method through polycarbonate membranes with pore sizes of 400, 80, and 30 nm to cover a wide range of curvatures. Since curvature is defined as the inverse of radius, the smallest size represents vesicles with the highest curvature. […] These vesicles were further characterized by transmission electron microscopy (TEM) to verify the sizes found by DLS.
# In other exemplary methods, binding strength of the interactions were assessed. Fluorescence anisotropy (FA) assay was adopted to measure the binding constants. The peptide partitions between the hydrophobic lipid bilayer and the aqueous solvent and the dissociation constant (Kd) calculated as the reciprocal of the molar partition coefficient. A constant concentration of peptide was titrated with increasing concentration of lipid vesicles and the FA due to the change in the rotational time of the small peptide when it binds to the relatively bigger lipid vesicles was measured and plotted versus the total lipid concentration. […] Fluorescence anisotropy titration was performed to obtain the Kd values. Lower values indicate stronger binding. LM=liposome model. [Peptide]=1 μM; [Lipid titrant]=2 mM.
# exosomes (Ex) = experiment: Fluorescence enhancement of BK derived peptides with exosomes from rat blood plasma; assay type: binding; details: Ex treated peptide vs untreated
# Description: In support of the observations with synthetic vesicles to translate to naturally-occurring extracellular vesicles, exosomes (Ex) purified from blood plasma of rats underwent inescapable tailshock stress as an acceptable model of exosome release. Ex have diameters of 40-100 nm, therefore providing a good biological model for testing the curvature-sensing peptides. […] The total number of Ex in the sample was counted by nanoparticle tracking analysis to ensure that is in the same order of magnitude as the 500 μM lipids in the synthetic models.
substance,measurement,setting,value
monomeric Bradykinin derivative: GRPPGFSPFR with ε-azidolysine and NBD-X fluorophore at the N-terminus [Peptide 1],Kd,lipid vesicles; LM 1 V58,996 ± 230 µM
same,Kd,lipid vesicles; LM 1 V116,940 ± 160 µM
same,Kd,lipid vesicles; LM 1 V454,7.14 µM
same,Kd,lipid vesicles; LM 2 V116,585 ± 62 µM
same,Kd,lipid vesicles; LM 2 V454,> 1000 µM
same,Kd,lipid vesicles; LM 2 V,488 ± 72 µM
same,Kd,lipid vesicles; LM 3 V58,407 ± 56 µM
same,Kd,lipid vesicles; LM 3 V116,893 ± 101 µM
same,Kd,lipid vesicles; LM 3 V454,902 ± 141 µM
same,fluorescence intensity,exosomes (Ex),3.09±0.08 RFU
